We go through 19 molecules from ChEMBL document CHEMBL1764984 (J Med Chem, 2011).

The test system of one data set is Blood. Description: Inhibition of TNFalpha-induced IL1-beta production in human whole blood after 2 to 5 hrs by ELISA. It counts as functional, tissue-based.
Data set [1] deals with Mitogen-activated protein kinase 14 (Homo sapiens, UniProt Q16539). In words: Inhibition of human recombinant p38alpha assessed as incorporation of 33P from gamma-[33P]ATP into myelin basic protein after 30 mins by scintillation counting.
Data set [2] can be described thus: Permeability of the compound from basolateral to apical side of human Caco2 cells at 10 uM after 21 days. It counts as ADME, cell-based. The note with it: Caco-2, read-out: permeability.
Another data set has as its system Rattus norvegicus. Description: Inhibition of LPS-induced TNFalpha production in rat serum at 3 mg/kg, po administered 30 mins before LPS challenge measured after […] by ELISA. It counts as functional.
The nature of data set [3]: Permeability of the compound from apical to basolateral side of human Caco2 cells at 10 uM after 21 days. It counts as ADME, cell-based. The note with it: Caco-2, read-out: permeability.
The nature of data set [4]: Aqueous solubility of the compound in phosphate buffer at pH 6.5. The class given is physicochemical.
The target in data set [5] is Tyrosine-protein kinase Lck (Homo sapiens, UniProt P06239). Description: Inhibition of LCK.
Data set [6] addresses Serine/threonine-protein kinase NLK (Homo sapiens) (UniProt Q9UBE8). In words: Inhibition of NLK at 10 uM.
The target of data set [7] is Mitogen-activated protein kinase 10 (Homo sapiens, UniProt P53779). The conditions noted are these: 10 uM.
Description: Inhibition of JNK3 at 10 uM
Data set [8] has as its target Serine/threonine-protein kinase 36 (Homo sapiens) (UniProt Q9NRP7). The conditions noted are these: 10 uM.
Description: Inhibition of STK36 at 10 uM
Data set [9] deals with Mitogen-activated protein kinase 11 (Homo sapiens, UniProt Q15759). In words: Inhibition of P38beta at 10 uM.
Data set [10] concerns the target Mitogen-activated protein kinase 8 (Homo sapiens) (UniProt P45983). In words: Inhibition of JNK1 at 10 uM.
Data set [11] has as its target Atypical kinase COQ8A, mitochondrial (Homo sapiens, UniProt Q8NI60). The conditions noted are these: 10 uM.
Description: Inhibition of ADCK3 at 10 uM
Data set [12] has as its target Cyclin-G-associated kinase (Homo sapiens) (UniProt O14976). Description: Inhibition of GAK at 10 uM.
For data set [13], the target named is Casein kinase I isoform epsilon (Homo sapiens, UniProt P49674). The conditions noted are these: 10 uM.
Description: Inhibition of CSNK1epsilon at 10 uM
Data set [14] deals with Ribosomal protein S6 kinase alpha-4 (Homo sapiens, UniProt O75676). Description: Inhibition of RSK4 at 10 uM.
Data set [15] concerns the target Mitogen-activated protein kinase 9 (Homo sapiens) (UniProt P45984). In words: Inhibition of JNK2 at 10 uM.
Data set [16] deals with Ribosomal protein S6 kinase alpha-3 (Homo sapiens, UniProt P51812). Description: Inhibition of RSK2 at 10 uM.
For data set [17], the target named is Epithelial discoidin domain-containing receptor 1 (Homo sapiens, UniProt Q08345). Description: Inhibition of DDR1 at 10 uM.

In brackets after ≈: the same amount, converted by molar mass.

Chain of Mitogen-activated protein kinase 14 (Q16539 whole entry): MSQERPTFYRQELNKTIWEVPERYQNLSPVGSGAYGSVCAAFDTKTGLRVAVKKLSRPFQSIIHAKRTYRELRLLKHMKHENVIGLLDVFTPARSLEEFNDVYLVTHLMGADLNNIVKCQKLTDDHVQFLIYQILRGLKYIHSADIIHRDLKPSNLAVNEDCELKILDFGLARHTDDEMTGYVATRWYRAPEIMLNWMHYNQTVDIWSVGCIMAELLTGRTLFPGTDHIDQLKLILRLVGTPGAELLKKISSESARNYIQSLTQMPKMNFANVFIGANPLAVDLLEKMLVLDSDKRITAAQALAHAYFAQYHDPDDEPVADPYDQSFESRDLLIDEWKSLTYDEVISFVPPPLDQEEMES
Chain of Casein kinase I isoform epsilon (P49674 whole entry, looked up, canonical isoform): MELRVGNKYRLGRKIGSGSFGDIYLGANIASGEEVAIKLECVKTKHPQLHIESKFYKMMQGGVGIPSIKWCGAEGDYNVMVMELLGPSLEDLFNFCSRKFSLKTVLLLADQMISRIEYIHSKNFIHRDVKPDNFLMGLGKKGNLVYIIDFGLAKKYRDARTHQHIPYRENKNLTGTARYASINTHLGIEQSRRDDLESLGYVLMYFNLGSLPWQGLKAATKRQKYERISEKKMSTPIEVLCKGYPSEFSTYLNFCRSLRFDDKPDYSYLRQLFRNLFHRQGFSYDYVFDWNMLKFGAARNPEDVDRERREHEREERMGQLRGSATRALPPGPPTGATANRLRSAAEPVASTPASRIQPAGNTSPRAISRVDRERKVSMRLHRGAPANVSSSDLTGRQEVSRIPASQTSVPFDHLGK
Chain of Mitogen-activated protein kinase 8 (Homo sapiens) (P45983 whole entry): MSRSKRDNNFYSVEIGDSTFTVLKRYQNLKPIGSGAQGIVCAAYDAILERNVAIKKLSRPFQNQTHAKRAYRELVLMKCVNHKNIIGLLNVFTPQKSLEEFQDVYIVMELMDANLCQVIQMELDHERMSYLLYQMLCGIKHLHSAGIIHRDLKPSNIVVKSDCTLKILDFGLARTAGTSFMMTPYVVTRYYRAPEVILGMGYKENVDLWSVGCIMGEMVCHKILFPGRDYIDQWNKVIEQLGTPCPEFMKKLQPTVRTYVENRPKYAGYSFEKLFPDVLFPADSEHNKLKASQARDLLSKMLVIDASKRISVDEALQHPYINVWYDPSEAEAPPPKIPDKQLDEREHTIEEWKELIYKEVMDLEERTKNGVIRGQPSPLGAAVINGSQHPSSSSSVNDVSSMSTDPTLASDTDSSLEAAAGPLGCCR
Chain of Tyrosine-protein kinase Lck (P06239 whole entry): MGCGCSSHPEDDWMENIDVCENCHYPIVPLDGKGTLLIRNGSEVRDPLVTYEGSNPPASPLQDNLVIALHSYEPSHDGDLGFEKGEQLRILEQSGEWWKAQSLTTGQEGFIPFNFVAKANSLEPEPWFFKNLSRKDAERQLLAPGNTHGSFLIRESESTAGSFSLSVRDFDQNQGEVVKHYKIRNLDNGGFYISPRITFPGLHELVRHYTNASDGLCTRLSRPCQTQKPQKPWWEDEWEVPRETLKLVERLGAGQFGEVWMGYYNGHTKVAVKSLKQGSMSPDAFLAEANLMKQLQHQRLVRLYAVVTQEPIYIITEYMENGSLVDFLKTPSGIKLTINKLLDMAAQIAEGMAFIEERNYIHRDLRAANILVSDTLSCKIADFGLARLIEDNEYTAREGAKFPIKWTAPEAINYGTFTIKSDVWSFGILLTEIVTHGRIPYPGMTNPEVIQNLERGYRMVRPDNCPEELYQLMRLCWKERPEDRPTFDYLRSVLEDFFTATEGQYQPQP
Chain of Mitogen-activated protein kinase 10 (P53779 whole entry): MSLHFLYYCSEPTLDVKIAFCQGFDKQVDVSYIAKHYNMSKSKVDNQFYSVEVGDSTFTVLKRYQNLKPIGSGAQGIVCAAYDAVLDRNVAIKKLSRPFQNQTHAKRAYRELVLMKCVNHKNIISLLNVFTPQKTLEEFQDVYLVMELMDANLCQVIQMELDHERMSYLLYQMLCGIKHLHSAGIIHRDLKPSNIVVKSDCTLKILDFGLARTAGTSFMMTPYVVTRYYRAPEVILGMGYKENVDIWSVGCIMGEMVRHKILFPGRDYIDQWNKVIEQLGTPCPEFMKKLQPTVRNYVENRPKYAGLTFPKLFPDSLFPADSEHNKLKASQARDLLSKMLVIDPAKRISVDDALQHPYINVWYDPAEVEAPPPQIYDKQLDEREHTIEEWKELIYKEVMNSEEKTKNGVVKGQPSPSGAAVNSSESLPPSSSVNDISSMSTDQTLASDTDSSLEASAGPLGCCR
Chain of Epithelial discoidin domain-containing receptor 1 (Q08345 whole entry, the tested form may be a part): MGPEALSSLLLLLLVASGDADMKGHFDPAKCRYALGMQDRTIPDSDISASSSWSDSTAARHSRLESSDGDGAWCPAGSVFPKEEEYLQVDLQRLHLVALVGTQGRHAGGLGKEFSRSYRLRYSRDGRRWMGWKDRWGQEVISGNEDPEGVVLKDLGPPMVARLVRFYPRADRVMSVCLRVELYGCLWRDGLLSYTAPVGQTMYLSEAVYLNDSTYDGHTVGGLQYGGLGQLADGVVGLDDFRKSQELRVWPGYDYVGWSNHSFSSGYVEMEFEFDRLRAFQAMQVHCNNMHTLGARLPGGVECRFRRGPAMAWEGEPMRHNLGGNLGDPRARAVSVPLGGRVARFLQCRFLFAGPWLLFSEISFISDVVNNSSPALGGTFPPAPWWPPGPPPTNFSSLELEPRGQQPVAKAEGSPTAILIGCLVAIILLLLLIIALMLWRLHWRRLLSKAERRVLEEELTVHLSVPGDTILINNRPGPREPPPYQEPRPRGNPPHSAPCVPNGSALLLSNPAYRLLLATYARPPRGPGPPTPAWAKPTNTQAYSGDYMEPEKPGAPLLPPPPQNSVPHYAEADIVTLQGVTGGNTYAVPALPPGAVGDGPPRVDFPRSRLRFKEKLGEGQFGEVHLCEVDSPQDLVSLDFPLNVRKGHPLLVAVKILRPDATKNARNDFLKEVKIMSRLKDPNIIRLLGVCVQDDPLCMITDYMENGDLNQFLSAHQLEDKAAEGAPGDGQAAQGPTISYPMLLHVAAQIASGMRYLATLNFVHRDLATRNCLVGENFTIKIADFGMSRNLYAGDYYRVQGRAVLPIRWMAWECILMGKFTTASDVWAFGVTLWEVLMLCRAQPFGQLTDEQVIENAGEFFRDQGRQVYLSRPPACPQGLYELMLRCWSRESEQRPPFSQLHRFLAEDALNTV
Chain of Cyclin-G-associated kinase (Homo sapiens) (O14976 whole entry, canonical isoform): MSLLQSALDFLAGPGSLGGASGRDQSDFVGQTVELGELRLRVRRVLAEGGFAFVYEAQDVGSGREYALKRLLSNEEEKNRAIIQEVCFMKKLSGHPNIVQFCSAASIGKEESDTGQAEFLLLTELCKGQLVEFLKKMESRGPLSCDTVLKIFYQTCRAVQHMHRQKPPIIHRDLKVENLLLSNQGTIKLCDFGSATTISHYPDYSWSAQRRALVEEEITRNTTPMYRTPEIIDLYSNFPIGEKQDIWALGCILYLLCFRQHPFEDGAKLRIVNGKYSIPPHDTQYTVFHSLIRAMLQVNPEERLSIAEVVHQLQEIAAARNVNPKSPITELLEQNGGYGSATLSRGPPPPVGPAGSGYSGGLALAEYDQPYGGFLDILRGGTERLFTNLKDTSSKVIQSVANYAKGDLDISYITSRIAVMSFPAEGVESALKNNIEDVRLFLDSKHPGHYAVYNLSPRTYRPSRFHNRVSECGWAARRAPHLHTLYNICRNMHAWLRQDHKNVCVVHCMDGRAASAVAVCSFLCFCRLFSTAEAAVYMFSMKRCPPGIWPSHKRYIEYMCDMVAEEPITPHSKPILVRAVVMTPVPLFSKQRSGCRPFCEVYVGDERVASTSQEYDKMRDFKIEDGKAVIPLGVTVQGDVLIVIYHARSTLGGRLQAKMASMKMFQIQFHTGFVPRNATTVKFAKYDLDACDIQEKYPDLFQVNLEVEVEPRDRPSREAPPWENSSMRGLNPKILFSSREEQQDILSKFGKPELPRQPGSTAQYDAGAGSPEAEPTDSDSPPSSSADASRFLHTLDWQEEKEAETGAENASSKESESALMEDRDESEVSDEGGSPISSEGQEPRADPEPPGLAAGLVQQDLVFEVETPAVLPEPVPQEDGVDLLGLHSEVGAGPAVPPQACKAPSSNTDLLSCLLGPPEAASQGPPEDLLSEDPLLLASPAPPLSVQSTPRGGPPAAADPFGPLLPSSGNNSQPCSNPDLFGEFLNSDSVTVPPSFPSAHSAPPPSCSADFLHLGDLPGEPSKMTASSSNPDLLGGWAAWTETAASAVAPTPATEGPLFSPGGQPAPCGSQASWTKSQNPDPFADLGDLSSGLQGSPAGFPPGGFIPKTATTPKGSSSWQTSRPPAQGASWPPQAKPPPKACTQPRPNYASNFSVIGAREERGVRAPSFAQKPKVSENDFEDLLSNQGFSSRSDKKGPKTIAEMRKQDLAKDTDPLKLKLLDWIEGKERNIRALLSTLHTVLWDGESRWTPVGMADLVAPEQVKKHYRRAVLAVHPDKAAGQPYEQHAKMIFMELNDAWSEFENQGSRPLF
Chain of Serine/threonine-protein kinase NLK (Homo sapiens) (Q9UBE8 whole entry): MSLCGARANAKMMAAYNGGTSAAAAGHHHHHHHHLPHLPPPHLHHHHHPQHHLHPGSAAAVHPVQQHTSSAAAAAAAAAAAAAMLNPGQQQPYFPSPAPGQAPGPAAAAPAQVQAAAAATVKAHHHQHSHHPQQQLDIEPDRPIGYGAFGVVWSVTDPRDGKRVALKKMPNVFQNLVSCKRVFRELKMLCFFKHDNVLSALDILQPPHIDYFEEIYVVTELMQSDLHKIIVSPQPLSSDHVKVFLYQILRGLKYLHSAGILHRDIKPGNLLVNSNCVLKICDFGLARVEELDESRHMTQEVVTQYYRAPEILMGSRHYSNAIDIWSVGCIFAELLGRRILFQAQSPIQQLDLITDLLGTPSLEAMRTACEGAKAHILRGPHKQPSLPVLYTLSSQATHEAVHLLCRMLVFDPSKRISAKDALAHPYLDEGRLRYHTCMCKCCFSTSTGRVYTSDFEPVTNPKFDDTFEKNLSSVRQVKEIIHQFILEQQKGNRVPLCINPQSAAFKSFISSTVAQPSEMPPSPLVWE

Regarding `O=c1c(Oc2ccc(F)cc2F)cc2cnc(NC3CCOCC3)nc2n1C1CCS(=O)(=O)CC1`, the values for the IC50 (in the data set on Blood; in data set [1]) were 11 nM and 1 nM, respectively.

Molecule `C[C@@H](Cn1ncnn1)Nc1ncc2cc(Oc3ccc(F)cc3F)c(=O)n(C)c2n1` displayed a 50% inhibitory concentration (IC50) in the data set on Blood of 9 nM. Further, the Papp B→A at 10 µM in [2] came to 19.7 ×10⁻⁶ cm/s. This molecule also had an inhibition in vivo at 3 mg/kg in the data set with Rattus norvegicus of 90%. The Papp A→B at 10 µM in [3] is 30.1 ×10⁻⁶ cm/s. Besides, the solubility in data set [4] was 23 µg/mL (≈ 55.5 µM).

As to `Cn1c(=O)c(Cc2ccc(F)cc2F)cc2cnc(NC3CCOCC3)nc21`, the IC50 in the data set with Blood was 713 nM; in data set [1], 40 nM.

For the molecule `Cn1c(=O)c(Oc2ccccc2F)cc2cnc(NC3CCOCC3)nc21`, the IC50 in the data set on Blood is 64.8 nM; in data set [1], 15 nM.

Take `Cn1c(=O)c(Oc2ccc(F)cc2F)cc2cnc(NCC(C)(C)O)nc21`: the IC50 in data set [1] came to 67 nM.

For `Cn1c(=O)c(-c2ccccc2Cl)cc2cnc(NC3CCOCC3)nc21`, half-maximal inhibition with Blood (IC50) was put at 85.7 nM. The molecule also came in with a Kd in data set [5] of 1800 nM.

In the case of `N#CCn1c(=O)c(Oc2ccc(F)cc2F)cc2cnc(NC3CCOCC3)nc21`, the IC50 in the data set with Blood stood at 28 nM; in [1] it was 2 nM.

As for `Cn1c(=O)c(Oc2ccc(F)cc2F)cc2cnc(NCCS(C)(=O)=O)nc21`, the 50% inhibitory concentration (IC50) in the data set with Blood came out at 1490 nM; in [1] it was 223 nM.

On to `CC(C)(O)Cn1c(=O)c(Oc2ccc(F)cc2F)cc2cnc(NC3CCOCC3)nc21`, for which the results for the IC50 (with Blood; in [1]) were 84 nM and 12 nM, respectively.

On to `O=c1c(Oc2ccc(F)cc2F)cc2cnc(NC3CCOCC3)nc2n1C[C@H](O)CO`, for which the IC50 in the data set on Blood is 15 nM; in data set [1] it was 7 nM.

As to `Cn1c(=O)c(Oc2ccc(F)cc2F)cc2cnc(NC3CCOCC3)nc21`, the inhibition in [6], in data set [7], in data set [8], in data set [9], in [10] and in data set [11] was greater than 85% in each case. The inhibition in [12], in data set [13], in data set [14], in data set [15], in data set [16] and in [17] was greater than 85% each time.

In the case of `Cn1c(=O)c(Oc2ccccc2)cc2cnc(NC3CCOCC3)nc21`, the IC50 in the data set with Blood is 451 nM.

On to `Cn1c(=O)c(Oc2cccc(F)c2)cc2cnc(NC3CCOCC3)nc21`, for which the results for the IC50 (in the data set on Blood; in [1]) were 1220 nM and 594 nM, respectively.

Consider `CCn1c(=O)c(Oc2ccc(F)cc2F)cc2cnc(NC3CCOCC3)nc21`, for which the half-inhibitory concentration (IC50) with Blood came out at 15 nM; in data set [1], 1 nM.

As for `CC(C)Nc1ncc2cc(Oc3ccc(F)cc3F)c(=O)n(C)c2n1`, the IC50 in the data set with Blood was 45 nM; in [1] it was 4 nM.

For `CS(=O)(=O)CCn1c(=O)c(Oc2ccc(F)cc2F)cc2cnc(NC3CCOCC3)nc21`, the IC50 in the data set with Blood turned out to be 308 nM; in [1], 20 nM.

Regarding `CNc1ncc2cc(Oc3ccc(F)cc3F)c(=O)n(C)c2n1`, the IC50 in data set [1] amounted to 260 nM.

For `Cn1c(=O)c(Oc2ccc(F)cc2F)cc2cnc(NC(CO)CO)nc21`, the IC50 came out at 189 nM with Blood and 158 nM in data set [1].

On to `O=c1c(Oc2ccc(F)cc2F)cc2cnc(NC3CCOCC3)nc2n1C1CC1`, for which the IC50 came out at 13 nM in the data set on Blood and 9 nM in data set [1].
